Experimental findings from patent US9593149B2, “Amylin and calcitonin receptor agonist” (Novo Nordisk A/S, priority 2014, dated 2017) are described below.

Series [1] in a line: Assay (IV) determination of solubility. The format is physicochemical. The method, then: Assay (IV)—Determination of Solubility
The mimylin peptide was dissolved in water at ˜500 nmol/ml and mixed 1:1 with a series of buffers (100 mM glycylglycine pH 3.0, 100 mM glycylglycine pH 4.0, 100 mM glycylglycine pH 5.0, 100 mM bistrispropane pH 6.0, 100 mM bistrispropane pH 6.5, 100 mM bistrispropane pH 7.0, 100 mM bistrispropane pH 7.5, 100 mM bistrispropane pH 8.0).

The target of series [2] is T1, rat calcitonin receptor (Rattus norvegicus, UniProt P32214).
T1 construct: expressed in transfected cells; host or cells: BHK tk'ts 13 (transient, FuGENE 6)
T1 sequence (P32214 25-479 isoform P32214-2 limits assumed): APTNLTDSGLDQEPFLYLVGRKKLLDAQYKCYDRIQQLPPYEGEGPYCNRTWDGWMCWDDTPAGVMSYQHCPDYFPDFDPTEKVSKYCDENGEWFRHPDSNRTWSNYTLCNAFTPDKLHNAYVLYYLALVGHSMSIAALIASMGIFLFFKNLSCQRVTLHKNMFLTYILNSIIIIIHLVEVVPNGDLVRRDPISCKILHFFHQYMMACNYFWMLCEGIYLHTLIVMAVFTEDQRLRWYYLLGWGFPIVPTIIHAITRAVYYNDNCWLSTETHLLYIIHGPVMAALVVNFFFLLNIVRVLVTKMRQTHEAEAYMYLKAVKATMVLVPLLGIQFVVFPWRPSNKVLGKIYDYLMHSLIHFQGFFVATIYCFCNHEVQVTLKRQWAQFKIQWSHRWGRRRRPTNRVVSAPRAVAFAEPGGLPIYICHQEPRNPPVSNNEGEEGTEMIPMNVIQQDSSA
The series is described as follows: Assay (VIII) binding to the rat calcitonin receptor. Conditions: membranes; read-out: rCT-R binding IC50. The method, then:
The morning after, the plates were washed three times in HBSS (4° C.), and lyzed in Lysis buffer (0.1 M NaOH), 1% SDS. Scintillation cocktail (MicroScint40®) was added and the plates were shaken at 500 rpm for a short period. The plate was incubated at room temperature in the dark for 1 hour and Read on a TopCounter™ (Packard). The IC50 was calculated using (one site binding competition analysis) GraphPad Prism5 as a measure of receptor affinity. Assay (VIII)—Determination of Binding to the Rat Calcitonin Receptor
The assay was performed as described above (Assay (VII)—Determination of binding to the human calcitonin receptor) with the exception that we used membranes prepared from BHK tk'ts 13 cells that were transiently transfected with the rat calcitonin receptor. The BHK tk'ts 13 cells were transiently transfected with rat calcitonin receptor using FuGENE® 6 (Roche), according to the manufacturer's recommendations. Cells were grown in DMEM with 10% FBS and 1% Pen/Strep.

SMILES strings stand for the structures. ≈ marks a conversion by molar mass, not a printed value. Numbered stars: 1 amine (or outer) side, 2 acyl side, 3 side chain; on linkers, the order of the positions; unused ones are H or OH. Side chains are listed from the residue outwards. Peptide text beside a SMILES is read from it. * marks the point of attachment. C20 diacid = O=C(O)CCCCCCCCCCCCCCCCCCC(=O)*; C16 diacid = O=C(O)CCCCCCCCCCCCCCC(=O)*; γGlu = O=C(O)[C@H](CCC(=O)[*:2])N[*:1]

As a reminder, the solubility is the dissolved amount per volume that the medium holds. A higher solubility goes with much dissolved substance. What is called IC50 is the concentration needed to halve the response being measured. As to `CC(C)C[C@H](NC(=O)CNC(=O)[C@H](CO)NC(=O)[C@H](C)NC(=O)COCCOCCNC(=O)COCCOCCNC(=O)CC[C@H](NC(=O)CCCCCCCCCCCCCCCCC(=O)O)C(=O)O)C(=O)N[C@@H](CO)C(=O)N[C@H](C(=O)N[C@@H](C)C(=O)N[C@H](C(=O)N[C@@H](CC(C)C)C(=O)NCC(=O)N[C@@H](CCCNC(=N)N)C(=O)N[C@@H](CC(C)C)C(=O)N[C@@H](CO)C(=O)N[C@@H](CCC(N)=O)C(=O)N[C@@H](CCC(=O)O)C(=O)N[C@@H](CC(C)C)C(=O)N[C@@H](Cc1cnc[nH]1)C(=O)N[C@@H](CCC(=O)O)C(=O)N[C@@H](CC(C)C)C(=O)N[C@@H](CCC(N)=O)C(=O)N[C@H](C(=O)N[C@@H](Cc1ccc(O)cc1)C(=O)N1CCC[C@H]1C(=O)N[C@@H](CCCNC(=N)N)C(=O)N[C@H](C(=O)N[C@@H](CCC(=O)O)C(=O)N[C@H](C(=O)NCC(=O)N[C@@H](CO)C(=O)NCC(=O)N[C@H](C(=O)N[C@@H](Cc1ccc(O)cc1)C(N)=O)[C@@H](C)O)[C@@H](C)O)[C@@H](C)O)[C@@H](C)O)C(C)C)[C@@H](C)O` [compound 121, [N-terminal(C18 diacid-gGlu-2xOEG), des1, 4G, 9V, 15Q, 21Q, 23Y, 30S, 31G, 32T, 33Y]mimylin], the Solubility entry in series [1] (pH 3.0), in series [1] (pH 4.0), in series [1] (pH 6.0), in series [1] (pH 6.5), in series [1] (pH 7.0) and in series [1] (pH 7.5) was “≧200 μM” each time. Moreover, the Solubility entry in series [1] (pH 8.0) is “≧200 μM”. The solubility at 18 h in series [1] (pH 5.0) came to 110 µM (≈ 455 µg/mL). Further, in series [2], the IC50 was found to be 0.032 nM.
On to `CC(C)C[C@H](NC(=O)[C@H](C)NC(=O)[C@H](C)NC(=O)[C@@H](NC(=O)[C@H](CO)NC(=O)[C@H](CC(C)C)NC(=O)[C@H](CCC(=O)O)NC(=O)[C@H](CO)NC(=O)[C@H](C)NC(=O)CC[C@H](NC(=O)CCCCCCCCCCCCCCC(=O)O)C(=O)O)[C@@H](C)O)C(=O)NCC(=O)N[C@@H](CCCNC(=N)N)C(=O)N[C@@H](CC(C)C)C(=O)N[C@@H](CO)C(=O)N[C@@H](C)C(=O)N[C@@H](CCC(=O)O)C(=O)N[C@@H](CC(C)C)C(=O)N[C@@H](Cc1cnc[nH]1)C(=O)N[C@@H](CCC(=O)O)C(=O)N[C@@H](CC(C)C)C(=O)N[C@@H](C)C(=O)N[C@H](C(=O)N[C@@H](CC(C)C)C(=O)N1CCC[C@H]1C(=O)N[C@@H](CCCNC(=N)N)C(=O)N[C@H](C(=O)N[C@@H](CCC(=O)O)C(=O)N[C@H](C(=O)NCC(=O)N[C@@H](CO)C(=O)NCC(=O)N[C@@H](CO)C(=O)N1CCC[C@H]1C(N)=O)[C@@H](C)O)[C@@H](C)O)[C@@H](C)O` [compound 47, [N-terminal(C16 diacid-gGlu), des1, 30S, 31G]mimylin] ({C16 diacid-γGlu}-ASELSTAALGRLSAELHELATLPRTETGSGSP-NH2), for which the Solubility result in series [1] (pH 3.0), in series [1] (pH 4.0), in series [1] (pH 5.0), in series [1] (pH 6.0), in series [1] (pH 6.5) and in series [1] (pH 7.0) was “≧200 μM” throughout. In addition, the Solubility entry in series [1] (pH 7.5) and in series [1] (pH 8.0) was “≧200 μM” throughout. In addition, the IC50 in series [2] was 0.013 nM.
For the compound `CC(C)C[C@H](NC(=O)[C@H](C)NC(=O)[C@H](C)NC(=O)[C@@H](NC(=O)[C@H](CO)NC(=O)[C@H](CC(C)C)NC(=O)[C@H](CCC(=O)O)NC(=O)[C@H](CO)NC(=O)[C@H](C)NC(=O)CC[C@H](NC(=O)CCCCCCCCCCCCCCCCCCC(=O)O)C(=O)O)[C@@H](C)O)C(=O)NCC(=O)N[C@@H](Cc1cnc[nH]1)C(=O)N[C@@H](CC(C)C)C(=O)N[C@@H](CO)C(=O)N[C@@H](C)C(=O)N[C@@H](CCC(=O)O)C(=O)N[C@@H](CC(C)C)C(=O)N[C@@H](Cc1cnc[nH]1)C(=O)N[C@@H](CCC(=O)O)C(=O)N[C@@H](CC(C)C)C(=O)N[C@@H](C)C(=O)N[C@H](C(=O)N[C@@H](CC(C)C)C(=O)N1CCC[C@H]1C(=O)N[C@@H](CCCNC(=N)N)C(=O)N[C@H](C(=O)N[C@@H](CCC(=O)O)C(=O)N[C@H](C(=O)NCC(=O)N[C@@H](CO)C(=O)NCC(=O)N[C@@H](CO)C(=O)N1CCC[C@H]1C(N)=O)[C@@H](C)O)[C@@H](C)O)[C@@H](C)O` [compound 72, [N-terminal(C20 diacid-gGlu), des1, 12H, 30S, 31G]mimylin] ({C20 diacid-γGlu}-ASELSTAALGHLSAELHELATLPRTETGSGSP-NH2), the Solubility entry in series [1] (pH 3.0), in series [1] (pH 4.0), in series [1] (pH 5.0), in series [1] (pH 6.0), in series [1] (pH 6.5) and in series [1] (pH 7.0) was “≧200 μM” throughout. Further, the Solubility entry in series [1] (pH 7.5) and in series [1] (pH 8.0) was “≧200 μM” throughout. For the same compound, the IC50 in series [2] is 0.085 nM.
With `CC(C)C[C@H](NC(=O)[C@H](C)NC(=O)[C@H](C)NC(=O)[C@@H](NC(=O)[C@H](CO)NC(=O)[C@H](CC(C)C)NC(=O)[C@H](CCC(=O)O)NC(=O)[C@H](CO)NC(=O)[C@H](C)N)[C@@H](C)O)C(=O)NCC(=O)N[C@@H](CCCNC(=N)N)C(=O)N[C@@H](CC(C)C)C(=O)N[C@@H](CO)C(=O)N[C@@H](C)C(=O)N[C@@H](CCC(=O)O)C(=O)N[C@@H](CC(C)C)C(=O)N[C@@H](Cc1cnc[nH]1)C(=O)N[C@@H](CCCCNC(=O)CC[C@H](NC(=O)CCCCCCCCCCCCCCCCCCC(=O)O)C(=O)O)C(=O)N[C@@H](CC(C)C)C(=O)N[C@@H](C)C(=O)N[C@H](C(=O)N[C@@H](CC(C)C)C(=O)N1CCC[C@H]1C(=O)N[C@@H](CCCNC(=N)N)C(=O)N[C@H](C(=O)N[C@@H](CCC(=O)O)C(=O)N[C@H](C(=O)NCC(=O)N[C@@H](CO)C(=O)NCC(=O)N[C@@H](CO)C(=O)N1CCC[C@H]1C(N)=O)[C@@H](C)O)[C@@H](C)O)[C@@H](C)O` [compound 54, [des1, 19K(C20 diacid-gGlu), 30S, 31G]mimylin] (H-ASELSTAALGRLSAELHK([γGlu-C20 diacid])LATLPRTETGSGSP-NH2), the Solubility result in series [1] (pH 3.0), in series [1] (pH 4.0), in series [1] (pH 5.0), in series [1] (pH 6.0), in series [1] (pH 6.5) and in series [1] (pH 7.0) was “≧200 μM” each time. The Solubility entry in series [1] (pH 7.5) and in series [1] (pH 8.0) was “≧200 μM” each time. Besides, the IC50 in series [2] came to 0.044 nM.
In the case of `CC(C)C[C@H](NC(=O)CNC(=O)[C@H](CO)NC(=O)[C@H](C)NC(=O)CC[C@H](NC(=O)CCCCCCCCCCCCCCCCCCC(=O)O)C(=O)O)C(=O)N[C@@H](CO)C(=O)N[C@H](C(=O)N[C@@H](C)C(=O)N[C@H](C(=O)N[C@@H](CC(C)C)C(=O)NCC(=O)N[C@@H](CCCCN)C(=O)N[C@@H](CC(C)C)C(=O)N[C@@H](CO)C(=O)N[C@@H](CCC(N)=O)C(=O)N[C@@H](CCC(=O)O)C(=O)N[C@@H](CC(C)C)C(=O)N[C@@H](Cc1cnc[nH]1)C(=O)N[C@@H](CCC(=O)O)C(=O)N[C@@H](CC(C)C)C(=O)N[C@@H](CCC(N)=O)C(=O)N[C@H](C(=O)N[C@@H](Cc1ccc(O)cc1)C(=O)N1CCC[C@H]1C(=O)N1CCC[C@H]1C(=O)N[C@H](C(=O)N[C@@H](CCC(=O)O)C(=O)N[C@H](C(=O)NCC(=O)N[C@@H](CO)C(=O)NCC(=O)N[C@H](C(=O)N[C@@H](Cc1ccc(O)cc1)C(N)=O)[C@@H](C)O)[C@@H](C)O)[C@@H](C)O)[C@@H](C)O)C(C)C)[C@@H](C)O` [compound 131, [N-terminal(C20 diacid-gGlu), des1, 4G, 9V, 12K, 15Q, 21Q, 23Y, 25P, 30S, 31G, 32T, 33Y]mimylin] ({C20 diacid-γGlu}-ASGLSTAVLGKLSQELHELQTYPPTETGSGTY-NH2), the Solubility entry in series [1] (pH 3.0), in series [1] (pH 5.0), in series [1] (pH 6.0), in series [1] (pH 6.5), in series [1] (pH 7.0) and in series [1] (pH 7.5) was “≧200 μM” in each case. The Solubility result in series [1] (pH 8.0) is recorded as “≧200 μM”. The same compound returned a solubility at 18 h in series [1] (pH 4.0) of 10 µM (≈ 37.9 µg/mL). The IC50 in series [2] was found to be 0.246 nM.
